Assay [1] concerns H929 human cancer cell lines. Briefly: Cellular viability / proliferation (Cell TiterGlo, 72 h). The format is cell-based. Conditions: Homo sapiens, NCI-H929, 72 h, read-out: GI50 on cellular proliferation of H929 human cancer cell lines, H929 cells, 72 h, Cell TiterGlo, 10% FBS. Summed up: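 Top dose 50 μM, serially diluted 2-fold, applied one day after seeding (1,000 cells/well, 10% FBS), DMSO below 1%.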

The next assay deals with Mcl-1 (Homo sapiens (Human), UniProt Q07820). Briefly: TR-FRET binding assay, FITC-Bak peptide and MBP-tagged Mcl-1. Conditions: read-out: Ki for Inhibition of Mcl-1 by TR-FRET assay. The method, then: Compounds are diluted in DMSO in a 16-point, semilog serial dilution scheme. […] The plate was mixed and incubated for 3 hours at room temperature. […] TR-FRET signal is plotted and IC50 and Ki values are calculated in the same manner as the fluorescence polarization anisotropy based competition assays.
Mcl-1, sequence (Q07820 172-327): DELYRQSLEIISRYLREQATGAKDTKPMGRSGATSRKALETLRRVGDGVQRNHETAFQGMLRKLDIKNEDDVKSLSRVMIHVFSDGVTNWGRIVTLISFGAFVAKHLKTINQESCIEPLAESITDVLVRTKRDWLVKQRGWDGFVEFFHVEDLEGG

A value given as a limit tells only on which side of the number the result lay.

As for `COCCn1c(C(=O)O)cc2c(OC)ccc(N3C[C@@H](C)n4c(c(CCCOc5cc(C)c(Cl)c(C)c5)c5ccc(Cl)c(-c6c(C)ncnc6C)c54)C3=O)c21` [Example 493, (R)-7-(7-chloro-10-(3-(4-chloro-3,5-dimethylphenoxy)propyl)-6-(4,6-dimethylpyrimidin-5-yl)-4-methyl-1-oxo-3,4-dihydropyrazino[1,2-a]indol-2(1H)-yl)-4-methoxy-1-(2-methoxyethyl)-1H-indole-2-carboxylic acid], in assay [1], the GI50 was below 200 nM. For the same molecule, on Mcl-1, the Ki was below 0.2 nM.
The corresponding values for `Cc1cc(OCCCc2c3n(c4c(-c5c(C)cc(O)cc5C)c(Cl)ccc24)[C@H](C)CN(c2cn(C)c4ccc(C(=O)O)cc24)C3=O)cc(C)c1Cl` [Example 496, (R)-3-(7-chloro-10-(3-(4-chloro-3,5-dimethylphenoxy)propyl)-6-(4-hydroxy-2,6-dimethylphenyl)-4-methyl-1-oxo-3,4-dihydropyrazino[1,2-a]indol-2(1H)-yl)-1-methyl-1H-indole-5-carboxylic acid] are 1200 nM and 0.64 nM.
Regarding `Cc1cc(OCCCc2c3n(c4c(-c5c(C)cc(OCc6ccccn6)cc5C)c(Cl)ccc24)[C@H](C)CN(c2cn(C)c4ccc(C(=O)O)cc24)C3=O)cc(C)c1Cl` [Example 497, (R)-3-(7-chloro-10-(3-(4-chloro-3,5-dimethylphenoxy)propyl)-6-(2,6-dimethyl-4-(pyridin-2-ylmethoxy)phenyl)-4-methyl-1-oxo-3,4-dihydropyrazino[1,2-a]indol-2(1H)-yl)-1-methyl-1H-indole-5-carboxylic acid], the GI50 in assay [1] was found to be 1700 nM. The inhibition constant Ki at Mcl-1 is 1.3 nM.
The corresponding values for `Cc1cc(OCCCc2c3n(c4c(-c5c(C)nn(C)c5C)c(Cl)ccc24)[C@H](C)CN(c2cc(NCCN(C)C)cc4c(C(=O)O)cn(C)c24)C3=O)cc(C)c1Cl` [Example 498, (R)-7-(7-chloro-10-(3-(4-chloro-3,5-dimethylphenoxy)propyl)-4-methyl-1-oxo-6-(1,3,5-trimethyl-1H-pyrazol-4-yl)-3,4-dihydropyrazino[1,2-a]indol-2(1H)-yl)-5-((2-(dimethylamino)ethyl)amino)-1-methyl-1H-indole-3-carboxylic acid] are 1900 nM and 0.58 nM.
For `Cc1cc(N2C[C@@H](C)n3c(c(CCCOc4cc(C)c(Cl)c(C)c4)c4ccc(Cl)c(-c5c(C)nn(C)c5C)c43)C2=O)c2c(c1)cc(C(=O)O)n2Cc1cccc(N2CCOCC2)n1` [Example 499, (R)-7-(7-chloro-10-(3-(4-chloro-3,5-dimethylphenoxy)propyl)-4-methyl-1-oxo-6-(1,3,5-trimethyl-1H-pyrazol-4-yl)-3,4-dihydropyrazino[1,2-a]indol-2(1H)-yl)-5-methyl-1-((6-morpholinopyridin-2-yl)methyl)-1H-indole-2-carboxylic acid], the GI50 in assay [1] amounted to 740 nM. Moreover, the Ki at Mcl-1 worked out at 0.21 nM.
On to `Cc1cc(N2C[C@@H](C)n3c(c(CCCOc4cc(C)c(Cl)c(C)c4)c4ccc(Cl)c(-c5c(C)nn(C)c5C)c43)C2=O)c2c(c1)cc(C(=O)O)n2Cc1cc(N2CCOCC2)ccn1` [Example 500, (R)-7-(7-chloro-10-(3-(4-chloro-3,5-dimethylphenoxy)propyl)-4-methyl-1-oxo-6-(1,3,5-trimethyl-1H-pyrazol-4-yl)-3,4-dihydropyrazino[1,2-a]indol-2(1H)-yl)-5-methyl-1-((4-morpholinopyridin-2-yl)methyl)-1H-indole-2-carboxylic acid], for which the GI50 in assay [1] was 330 nM. Besides, the Ki on Mcl-1 is below 0.2 nM.
With `Cc1cc(OCCCc2c3n(c4c(-c5c(C)nc(CN6CCN(C)CC6)nc5C)c(Cl)ccc24)[C@H](C)CN(c2cn(C)c4ccc(-c5ncn(C)n5)cc24)C3=O)cc(C)c1Cl` [Example 502, (R)-7-chloro-10-(3-(4-chloro-3,5-dimethylphenoxy)propyl)-6-(4,6-dimethyl-2-((4-methylpiperazin-1-yl)methyl)pyrimidin-5-yl)-4-methyl-2-(1-methyl-5-(1-methyl-1H-1,2,4-triazol-3-yl)-1H-indol-3-yl)-3,4-dihydropyrazino[1,2-a]indol-1(2H)-one], the GI50 in assay [1] is below 200 nM. Moreover, the Ki on Mcl-1 is 2.9 nM.
The corresponding values for `Cc1cc(OCCCc2c3n(c4c(-c5c(C)nc(CN6CCOCC6)nc5C)c(Cl)ccc24)[C@H](C)CN(c2cn(C)c4ccc(-c5ncn(C)n5)cc24)C3=O)cc(C)c1Cl` [Example 503, (R)-7-chloro-10-(3-(4-chloro-3,5-dimethylphenoxy)propyl)-6-(4,6-dimethyl-2-(morpholinomethyl)pyrimidin-5-yl)-4-methyl-2-(1-methyl-5-(1-methyl-1H-1,2,4-triazol-3-yl)-1H-indol-3-yl)-3,4-dihydropyrazino[1,2-a]indol-1(2H)-one] are below 200 nM and 3.7 nM.
The corresponding values for `Cc1cc(N2C[C@@H](C)n3c(c(CCCOc4cc(C)c(Cl)c(C)c4)c4ccc(Cl)c(-c5c(C)nn(C)c5C)c43)C2=O)c2c(c1)cc(C(=O)O)n2Cc1cc(N2CCCCC2)ccn1` [Example 504, (R)-7-(7-Chloro-10-(3-(4-chloro-3,5-dimethylphenoxy)propyl)-4-methyl-1-oxo-6-(1,3,5-trimethyl-1H-pyrazol-4-yl)-3,4-dihydropyrazino[1,2-a]indol-2(1H)-yl)-5-methyl-1-((4-(piperidin-1-yl)pyridin-2-yl)methyl)-1H-indole-2-carboxylic acid] are 1000 nM and 0.23 nM.
For `Cc1cc(N2C[C@@H](C)n3c(c(CCCOc4cc(C)c(Cl)c(C)c4)c4ccc(Cl)c(-c5c(C)nn(C)c5C)c43)C2=O)c2c(c1)cc(C(=O)O)n2Cc1cccc(N2CCCCC2)n1` [Example 505, (R)-7-(7-Chloro-10-(3-(4-chloro-3,5-dimethylphenoxy)propyl)-4-methyl-1-oxo-6-(1,3,5-trimethyl-1H-pyrazol-4-yl)-3,4-dihydropyrazino[1,2-a]indol-2(1H)-yl)-5-methyl-1-((6-(piperidin-1-yl)pyridin-2-yl)methyl)-1H-indole-2-carboxylic acid], the GI50 in assay [1] worked out at 3200 nM. For the same molecule, the Ki at Mcl-1 came to 1.3 nM.
Consider `Cc1cc(OCCCc2c3n(c4c(-c5c(C)nn(C)c5C)c(Cl)ccc24)[C@H](C)CN(c2cc(CO)cc4c(C(=O)O)cn(C)c24)C3=O)cc(C)c1Cl` [Example 506, (R)-7-(7-Chloro-10-(3-(4-chloro-3,5-dimethylphenoxy)propyl)-4-methyl-1-oxo-6-(1,3,5-trimethyl-1H-pyrazol-4-yl)-3,4-dihydropyrazino[1,2-a]indol-2(1H)-yl)-5-(hydroxymethyl)-1-methyl-1H-indole-3-carboxylic acid], for which, in assay [1], the GI50 was determined as 1300 nM. At Mcl-1, the Ki is below 0.2 nM.
As to `Cc1cc(OCCCc2c3n(c4c(-c5c(C)cc(OCCN6CCCC6)cc5C)c(Cl)ccc24)[C@H](C)CN(c2cn(C)c4ccc(C(=O)O)cc24)C3=O)cc(C)c1Cl` [Example 508, (R)-3-(7-chloro-10-(3-(4-chloro-3,5-dimethylphenoxy)propyl)-6-(2,6-dimethyl-4-(2-(pyrrolidin-1-yl)ethoxy)phenyl)-4-methyl-1-oxo-3,4-dihydropyrazino[1,2-a]indol-2(1H)-yl)-1-methyl-1H-indole-5-carboxylic acid], the GI50 in assay [1] was 450 nM. The Ki on Mcl-1 was 2.4 nM.
Turning to `Cc1cc(OCCCc2c3n(c4c(-c5c(C)cc(OCCN(C)C)cc5C)c(Cl)ccc24)[C@H](C)CN(c2cn(C)c4ccc(C(=O)O)cc24)C3=O)cc(C)c1Cl` [Example 509, (R)-3-(7-chloro-10-(3-(4-chloro-3,5-dimethylphenoxy)propyl)-6-(4-(2-(dimethylamino)ethoxy)-2,6-dimethylphenyl)-4-methyl-1-oxo-3,4-dihydropyrazino[1,2-a]indol-2(1H)-yl)-1-methyl-1H-indole-5-carboxylic acid], in assay [1], the GI50 came out at 390 nM. Besides, at Mcl-1, the Ki came to 1.6 nM.
Consider `Cc1cc(OCCCc2c3n(c4c(-c5c(C)nn(C)c5C)c(Cl)ccc24)[C@H](C)CN(c2cn(CCN(C)C)c4ccc(C(=O)O)cc24)C3=O)cc(C)c1Cl` [Example 510, (R)-3-(7-Chloro-10-(3-(4-chloro-3,5-dimethylphenoxy)propyl)-4-methyl-1-oxo-6-(1,3,5-trimethyl-1H-pyrazol-4-yl)-3,4-dihydropyrazino[1,2-a]indol-2(1H)-yl)-1-(2-(dimethylamino)ethyl)-1H-indole-5-carboxylic acid], for which the GI50 in assay [1] came to 240 nM. Also, the inhibitory constant (Ki) on Mcl-1 was below 0.2 nM.
Consider `Cc1cc(OCCCc2c3n(c4c(-c5c(C)nn(C)c5C)c(Cl)ccc24)[C@H](C)CN(c2cn(CCN4CCCC4)c4ccc(C(=O)O)cc24)C3=O)cc(C)c1Cl` [Example 511, (R)-3-(7-Chloro-10-(3-(4-chloro-3,5-dimethylphenoxy)propyl)-4-methyl-1-oxo-6-(1,3,5-trimethyl-1H-pyrazol-4-yl)-3,4-dihydropyrazino[1,2-a]indol-2(1H)-yl)-1-(2-(pyrrolidin-1-yl)ethyl)-1H-indole-5-carboxylic acid], for which, in assay [1], the GI50 worked out at 300 nM. Moreover, the Ki at Mcl-1 is below 0.2 nM.
The corresponding values for `COCCn1cc(C(=O)O)c2cccc(N3C[C@@H](C)n4c(c(CCCOc5cc(C)c(Cl)c(C)c5)c5ccc(Cl)c(-c6c(C)nn(C)c6C)c54)C3=O)c21` [Example 512, (R)-7-(7-Chloro-10-(3-(4-chloro-3,5-dimethylphenoxy)propyl)-4-methyl-1-oxo-6-(1,3,5-trimethyl-1H-pyrazol-4-yl)-3,4-dihydropyrazino[1,2-a]indol-2(1H)-yl)-1-(2-methoxyethyl)-1H-indole-3-carboxylic acid] are 220 nM and below 0.2 nM.

For the origin of these results see US11596639B2, “Substituted indole Mcl-1 inhibitors” (Vanderbilt University, priority 2016, dated 2023).
